Experimental data published in ChEMBL document CHEMBL3045031, “Study on synthesis of thalidomide analogues and their bioactivities; inhibition on iNOS pathway and cytotoxic effects” (Med Chem Res, 2012).

Tests used:
HEp-2 = assay: Cytotoxicity against Homo sapiens (human) Hep2 cells after 24 hr by MTT assay; type: functional, cell-based; details: HEp-2, 24 h
[1] = target: T1, Nitric oxide synthase, inducible (Mus musculus) (UniProt P29477); assay: Inhibition of iNOS in Mus musculus (mouse) RAW 264.7 cells assessed as inhibition of LPS-induced nitrite production pretreated for 24 hr before stimulation with LPS measured after 18 hr by […]; design: concentration or dose not given beside the values; details: concentration not given here
T1 sequence (whole entry): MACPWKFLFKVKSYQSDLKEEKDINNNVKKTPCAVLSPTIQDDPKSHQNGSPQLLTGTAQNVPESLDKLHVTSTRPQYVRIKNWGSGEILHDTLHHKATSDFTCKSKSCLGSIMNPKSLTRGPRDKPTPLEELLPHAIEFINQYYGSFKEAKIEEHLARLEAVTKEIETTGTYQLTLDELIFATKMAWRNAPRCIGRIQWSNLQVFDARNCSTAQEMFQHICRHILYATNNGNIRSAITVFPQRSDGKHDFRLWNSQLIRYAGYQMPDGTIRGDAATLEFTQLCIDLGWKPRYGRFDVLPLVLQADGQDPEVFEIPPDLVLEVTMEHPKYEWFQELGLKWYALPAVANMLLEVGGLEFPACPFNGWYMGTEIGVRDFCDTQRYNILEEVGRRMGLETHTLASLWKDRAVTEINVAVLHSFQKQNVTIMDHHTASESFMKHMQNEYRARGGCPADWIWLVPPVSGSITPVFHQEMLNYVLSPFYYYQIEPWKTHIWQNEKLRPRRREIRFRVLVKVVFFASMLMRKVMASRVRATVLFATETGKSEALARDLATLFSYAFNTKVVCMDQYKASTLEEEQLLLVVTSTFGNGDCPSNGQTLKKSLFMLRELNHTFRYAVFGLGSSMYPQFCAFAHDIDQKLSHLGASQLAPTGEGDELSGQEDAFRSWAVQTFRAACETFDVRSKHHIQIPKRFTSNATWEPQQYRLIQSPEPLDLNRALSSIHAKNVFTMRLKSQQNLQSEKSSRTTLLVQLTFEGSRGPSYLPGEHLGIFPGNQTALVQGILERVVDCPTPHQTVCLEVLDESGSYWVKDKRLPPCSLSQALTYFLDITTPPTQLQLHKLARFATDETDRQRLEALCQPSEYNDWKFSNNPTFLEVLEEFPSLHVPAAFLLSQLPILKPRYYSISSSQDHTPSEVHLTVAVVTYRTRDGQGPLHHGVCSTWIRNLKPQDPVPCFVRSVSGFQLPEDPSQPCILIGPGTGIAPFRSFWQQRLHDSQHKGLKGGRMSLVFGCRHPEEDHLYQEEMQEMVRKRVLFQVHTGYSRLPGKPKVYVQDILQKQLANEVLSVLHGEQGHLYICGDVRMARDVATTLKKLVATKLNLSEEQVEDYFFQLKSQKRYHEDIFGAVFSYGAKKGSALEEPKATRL

HL-60 = assay: Cytotoxicity against Homo sapiens (human) HL60 cells after 24 hr by MTT assay; type: functional, cell-based; details: HL-60, 24 h
NUGC = assay: Cytotoxicity against Homo sapiens (human) NUGC cells after 24 hr by MTT assay; type: functional, cell-based
[2] = Cytotoxicity against Homo sapiens (human) HONE1 cells after 24 hr by MTT assay; type: functional, cell-based; details: HONE1, 24 h

| Compound | IC50 (HEp-2) | inhibition [1] | IC50 (HL-60) | IC50 (NUGC) | IC50 [2] |
| --- | --- | --- | --- | --- | --- |
| COc1ccc(N2C(=O)c3ccccc3C2=O)cc1 | > 200 µM | 87.3% | > 200 µM | > 200 µM | > 200 µM |
| N#Cc1ccc(N2C(=O)[C@@H]3C4C=CC(CC4)[C@@H]3C2=O)cc1 |  | 68.4% |  |  | > 200 µM |
| O=C1CCC(N2C(=O)c3ccccc3C2=O)C(=O)N1 (stereo unspecified) |  | 28.2% |  |  |  |
| Cc1ccc2c(c1)C(=O)N(Cc1ccccc1N)C2=O |  | 98.4% | > 200 µM | > 200 µM | > 200 µM |
| O=C1c2ccccc2C(=O)N1c1cccc([N+](=O)[O-])c1 | 179 µM | 90.6% | 174 µM | > 200 µM |  |
| O=C1c2ccccc2C(=O)N1c1ccccc1 [N-PHENYL-PHTHALIMIDE] | > 200 µM | 89.2% | > 200 µM | > 200 µM |  |
| Nc1ccc(N2C(=O)[C@@H]3C4C=CC(CC4)[C@@H]3C2=O)cc1 | > 200 µM | 87.9% | 166 µM |  |  |
| O=C1c2ccccc2C(=O)N1c1ccccn1 | 65.8 µM | 67.6% | > 200 µM | > 200 µM | 156 µM |
| O=C1C2C3C=CC(CC3)C2C(=O)N1c1ccccc1 (stereo unspecified) | 41.2 µM | 82% | 118 µM |  | > 200 µM |
| CC1=C(C)C(=O)N(Cc2ccccc2N)C1=O |  | 72.8% | 139 µM | > 200 µM | > 200 µM |
| O=C1c2ccccc2C(=O)N1c1ccc(S)cc1 | > 200 µM | 94.5% | > 200 µM | > 200 µM | > 200 µM |
| Cc1ccc2c(c1)C(=O)N(c1ccc(/N=N\c3ccccc3)cc1)C2=O | 104 µM | 91.9% | 59.5 µM | > 200 µM | > 200 µM |
| N#Cc1ccccc1N1C(=O)c2ccccc2C1=O | > 200 µM | 80.1% | > 200 µM | > 200 µM | > 200 µM |
| O=C1c2ccccc2C(=O)N1c1ccc(-c2ccccc2)cc1 | 40.4 µM | 84.6% | 119 µM | > 200 µM | > 200 µM |
| O=C1C2C3C=CC(CC3)C2C(=O)N1c1ccc(Cl)cn1 (stereo unspecified) | > 200 µM | 44.9% | > 200 µM | > 200 µM | > 200 µM |
| COc1ccc(N2C(=O)C3C4C=CC(CC4)C3C2=O)cc1 (stereo unspecified) | > 200 µM | 84.6% | > 200 µM | > 200 µM |  |
| O=C1C2C3C=CC(CC3)C2C(=O)N1c1ccc(Br)cn1 (stereo unspecified) | 150 µM | 56.6% | > 200 µM | > 200 µM |  |

| Compound | IC50 (HEp-2) | inhibition [1] | IC50 (HL-60) | IC50 (NUGC) | IC50 [2] |
| --- | --- | --- | --- | --- | --- |
| Nc1cccc(CN2C(=O)c3ccccc3C2=O)c1 |  | 91.9% | 78.1 µM | > 200 µM | > 200 µM |
| O=C1c2cccc3cccc(c23)C(=O)N1c1ccccc1 | 44.2 µM | 67.6% | > 200 µM | > 200 µM | > 200 µM |
| Nc1cccc(N2C(=O)C3C4C=CC(CC4)C3C2=O)c1 (stereo unspecified) | 53.4 µM | 68.4% | 64.1 µM |  | > 200 µM |
| Cc1ccc2c(c1)C(=O)N(c1ccc(-c3ccccc3)cc1)C2=O | 104 µM | 70.9% | 59.5 µM |  | > 200 µM |
| Cc1ccc2c(c1)C(=O)N(c1ccc([N+](=O)[O-])cn1)C2=O | 172 µM | 74.8% | > 200 µM | > 200 µM | > 200 µM |
| Nc1ccccc1CN1C(=O)C2C3C=CC(CC3)C2C1=O (stereo unspecified) |  | 75.5% | > 200 µM | > 200 µM | > 200 µM |
| Nc1ccc(CN2C(=O)c3ccccc3C2=O)cc1 |  | 81.4% | > 200 µM | > 200 µM | > 200 µM |
| Nc1ccccc1N1C(=O)C2C3C=CC(CC3)C2C1=O (stereo unspecified) | 32.5 µM | 76.9% | 67.6 µM | > 200 µM | > 200 µM |
| Nc1ccc(N2C(=O)c3cccc4cccc(c34)C2=O)cc1 | 43.9 µM | 90.6% | > 200 µM | > 200 µM | > 200 µM |
| Cc1cccc2c1C(=O)N(Cc1ccc(N)cc1)C2=O |  | 80.7% | > 200 µM | > 200 µM | > 200 µM |
| O=C1C2C3C=CC(CC3)C2C(=O)N1c1ccc(-c2ccccc2)cc1 (stereo unspecified) | 46.3 µM | 86.6% | 104 µM | > 200 µM |  |
| O=C1c2ccccc2C(=O)N1c1ccc(Cl)cc1 | 178 µM | 71.5% | > 200 µM | > 200 µM |  |
| O=C1C2C3C=CC(CC3)C2C(=O)N1c1ccc(S)cc1 (stereo unspecified) |  | 87.9% |  |  |  |
| O=C1C2C3C=CC(CC3)C2C(=O)N1c1ncc(Cl)cc1Cl (stereo unspecified) | > 200 µM | 77.9% | 139 µM |  | > 200 µM |
| Nc1cccc(N2C(=O)c3cccc4cccc(c34)C2=O)c1 | 147 µM | 81.4% | > 200 µM | > 200 µM | > 200 µM |
| O=C1c2ccccc2C(=O)N1c1ccc(Cl)cn1 | 56.7 µM | 94.5% | 67.2 µM | > 200 µM | > 200 µM |
| O=C1c2ccccc2C(=O)N1c1ccccc1N1C(=O)c2ccccc2C1=O | 56.8 µM | 85.3% | > 200 µM | > 200 µM | > 200 µM |
